Measured values as given in the NIST ThermoML archive (doi:10.1021/acs.jced.7b00704).

Assay: refractive index (Na D-line) (dimensionless); xn = mol fraction of the nth substance listed
Conditions: 293.15 K, 93 kPa, Liquid, Standard Abbe refractometry

CCCOC(C)=O [propyl ethanoate] + COC(=O)OC
Conditions | refractive index
x1 = 0.0846 | 1.3704
x1 = 0.1341 | 1.3714
x1 = 0.1705 | 1.372
x1 = 0.223 | 1.3731
x1 = 0.2896 | 1.3741
x1 = 0.3877 | 1.3757
x1 = 0.4374 | 1.3765
x1 = 0.4989 | 1.3775
x1 = 0.562 | 1.3784
x1 = 0.669 | 1.38
x1 = 0.7756 | 1.3815
x1 = 0.891 | 1.383
x1 = 0.9528 | 1.3838
x1 = 1 | 1.3843

CCOC(C)=O [ethyl acetate] + COC(=O)OC
Conditions | refractive index
x1 = 1 | 1.3724

CC(=O)OC(C)C [1-methylethyl ethanoate] + COC(=O)OC
Conditions | refractive index
x1 = 0.0423 | 1.3693
x1 = 0.0899 | 1.3699
x1 = 0.183 | 1.371
x1 = 0.2918 | 1.3721
x1 = 0.4235 | 1.3733
x1 = 0.5026 | 1.374
x1 = 0.5726 | 1.3746
x1 = 0.6814 | 1.3754
x1 = 0.7285 | 1.3758
x1 = 0.7616 | 1.3759
x1 = 0.7915 | 1.3761
x1 = 0.8849 | 1.3767
x1 = 0.9449 | 1.3771
x1 = 1 | 1.3774

CCCCOC(C)=O [butyl ethanoate] + COC(=O)OC
Conditions | refractive index
x1 = 0.0941 | 1.3721
x1 = 0.1143 | 1.3728
x1 = 0.1628 | 1.3743
x1 = 0.2495 | 1.377
x1 = 0.3203 | 1.379
x1 = 0.4375 | 1.3821
x1 = 0.5357 | 1.3846
x1 = 0.6438 | 1.3871
x1 = 0.7325 | 1.389
x1 = 0.7418 | 1.3893
x1 = 0.8819 | 1.3921
x1 = 0.9073 | 1.3925
x1 = 1 | 1.3943

COC(=O)OC [dimethyl carbonate] + CCOC(C)=O
Conditions | refractive index
x2 = 0 | 1.3688
x2 = 0.0861 | 1.3693
x2 = 0.1154 | 1.3694
x2 = 0.2095 | 1.3698
x2 = 0.3017 | 1.3702
x2 = 0.3685 | 1.3704
x2 = 0.3952 | 1.3705
x2 = 0.4303 | 1.3707
x2 = 0.5094 | 1.371
x2 = 0.5642 | 1.3712
x2 = 0.6047 | 1.3713
x2 = 0.6964 | 1.3716
x2 = 0.8026 | 1.3719
x2 = 0.8912 | 1.3722
x2 = 0.9375 | 1.3723

CC(=O)OCCC(C)C [3-methylbutyl ethanoate] + COC(=O)OC
Conditions | refractive index
x1 = 0.0369 | 1.3706
x1 = 0.0721 | 1.3724
x1 = 0.2004 | 1.378
x1 = 0.2231 | 1.3788
x1 = 0.3091 | 1.3821
x1 = 0.4027 | 1.3854
x1 = 0.4943 | 1.3883
x1 = 0.6064 | 1.3915
x1 = 0.7185 | 1.3945
x1 = 0.8312 | 1.3972
x1 = 0.9243 | 1.3992
x1 = 1 | 1.4007

COC(C)=O [methyl ethanoate] + COC(=O)OC
Conditions | refractive index
x1 = 0.0985 | 1.3682
x1 = 0.1427 | 1.3679
x1 = 0.2469 | 1.3673
x1 = 0.3243 | 1.3668
x1 = 0.3794 | 1.3665
x1 = 0.445 | 1.366
x1 = 0.5283 | 1.3654
x1 = 0.6548 | 1.3645
x1 = 0.7403 | 1.3639
x1 = 0.7976 | 1.3634
x1 = 0.8939 | 1.3625
x1 = 0.9548 | 1.362
x1 = 1 | 1.3615

COC(=O)OC [dimethyl carbonate] + CCCOC(C)=O
Conditions | refractive index
x2 = 0 | 1.3688

COC(=O)OC [dimethyl carbonate] + COC(C)=O
Conditions | refractive index
x2 = 0 | 1.3688

COC(=O)OC [dimethyl carbonate] + CCCCOC(C)=O
Conditions | refractive index
x2 = 0 | 1.3688
